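These data come from cells grown in 96-well plates and exposed to compound for 48 hours at five concentrations. GI50 is the concentration that inhibits growth by half.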 Activity calls are given as the source filed them. No stated cut-off is given here; in the data, active = GI50 up to about 1.1 µM and inactive = higher.
Experiments:
Assay in all cases: NCI-60 cell line screen, 48 h
SK-MEL-5 = system: SK-MEL-5
NCI-H460 = system: NCI-H460
HOP-92 = system: HOP-92
A549 = system: A549
CCRF-CEM = system: CCRF-CEM
NCI-H23 = system: NCI-H23
MCF7 = system: MCF7
COLO 205 = system: COLO 205
KM12 = system: KM12
OVCAR-8 = system: OVCAR-8
HOP-62 = system: HOP-62
NCI-H226 = system: NCI-H226
HCC 2998 = system: HCC 2998
RPMI-8226 = system: RPMI-8226
SNB-19 = system: SNB-19
UO-31 = system: UO-31
HCT-15 = system: HCT-15
OVCAR-5 = system: OVCAR-5
SN12C = system: SN12C
SF-539 = system: SF-539

SMILES | GI50 (SK-MEL-5) | GI50 (NCI-H460) | GI50 (HOP-92) | GI50 (A549) | GI50 (CCRF-CEM) | GI50 (NCI-H23) | GI50 (MCF7) | GI50 (COLO 205) | GI50 (KM12) | GI50 (OVCAR-8) | GI50 (HOP-62) | GI50 (NCI-H226) | GI50 (HCC 2998) | GI50 (RPMI-8226) | GI50 (SNB-19) | GI50 (UO-31) | GI50 (HCT-15) [µM] | GI50 (OVCAR-5) | GI50 (SN12C) | GI50 (SF-539)
CCOC(=O)CCC(C(=O)OCC)n1nc2ccc(Nc3c(C)[n+]([O-])c4cc(F)c(OCC)cc4[n+]3[O-])cc2n1 (stereo not given) | 82.8 µM (inactive) | 29.3 µM (inactive) | 21.4 µM (inactive) | 75.2 µM (inactive) | > 100 µM (inactive) | 32.9 µM (inactive) | 61.2 µM (inactive) | > 100 µM (inactive) | > 100 µM (inactive) | 30 µM (inactive) | 17.5 µM (inactive) | 36.7 µM (inactive) | 35 µM (inactive) | > 100 µM (inactive) | 31.9 µM (inactive) | 52.4 µM (inactive) | > 100 | > 100 µM (inactive) | 91.2 µM (inactive) | 22.5 µM (inactive)
CCN(CC)CCn1ncc2ccc3c(c(=O)c4cccnc4n3CCN(CC)CC)c21 | 1.09 µM (active) | 0.403 µM (active) | 1.38 µM (inactive) | 0.618 µM (active) | 0.348 µM (active) | 1.29 µM (inactive) | 0.618 µM (active) | 0.493 µM (active) | 0.603 µM (active) | 0.561 µM (active) | 0.867 µM (active) | 1.7 µM (inactive) | 0.75 µM (active) | 0.931 µM (active) | 1.97 µM (inactive) | 1.5 µM (inactive) | 0.743 | 1.09 µM (active) | 0.621 µM (active) | 0.589 µM (active)
CCOC(=O)COc1c(OC)cc(C2C3=C(COC3=O)Oc3cc4c(cc32)OCO4)cc1OC (stereo not given) | 0.244 µM (active) | 7.94 µM (inactive) | 14.6 µM (inactive) | 4.45 µM (inactive) | 0.229 µM (active) | 0.646 µM (active) | 3.27 µM (inactive) | 0.991 µM (active) | 0.304 µM (active) | 5.69 µM (inactive) | 2.16 µM (inactive) | > 54 µM (inactive) | 14.5 µM (inactive) | 0.255 µM (active) | 13 µM (inactive) | 13.4 µM (inactive) | 0.502 | > 84.1 µM (inactive) | 1.72 µM (inactive) | 3.57 µM (inactive)
COc1ccc(C2c3cc4c(cc3C(O)C3CCC(=O)N23)OCO4)cc1 (stereo not given) | > 100 µM (inactive) | > 100 µM (inactive) | > 100 µM (inactive) | > 100 µM (inactive) | > 100 µM (inactive) | > 100 µM (inactive) | > 100 µM (inactive) | > 100 µM (inactive) | > 100 µM (inactive) | > 100 µM (inactive) | > 100 µM (inactive) | > 100 µM (inactive) | > 100 µM (inactive) | > 100 µM (inactive) | > 100 µM (inactive) | > 100 µM (inactive) | > 100 | > 100 µM (inactive) | > 100 µM (inactive) | > 100 µM (inactive)
O=[N+]([O-])c1ccc(-c2cc(O)c3nc4ccccc4n3c2)cc1 | > 100 µM (inactive) | > 100 µM (inactive) | > 65.9 µM (inactive) | > 100 µM (inactive) | > 100 µM (inactive) | > 100 µM (inactive) | > 84.7 µM (inactive) | > 100 µM (inactive) | > 100 µM (inactive) | 60.1 µM (inactive) | 28.6 µM (inactive) | > 100 µM (inactive) | > 100 µM (inactive) | > 100 µM (inactive) | > 53.7 µM (inactive) | > 91.4 µM (inactive) | > 100 | > 100 µM (inactive) | > 100 µM (inactive) | > 100 µM (inactive)
c1ccc2c(c1)CCc1[nH]c3c(c1-2)-c1ccccc1CC3 | > 100 µM (inactive) | 39.9 µM (inactive) | > 100 µM (inactive) | 77.1 µM (inactive) | 39.4 µM (inactive) | > 100 µM (inactive) | 39.9 µM (inactive) | > 100 µM (inactive) | 48.2 µM (inactive) | > 100 µM (inactive) | 15.1 µM (inactive) | 61.8 µM (inactive) | 36 µM (inactive) | 43.1 µM (inactive) | > 100 µM (inactive) | > 100 µM (inactive) | 48.1 | > 100 µM (inactive) | > 100 µM (inactive) | > 100 µM (inactive)
COc1ccc(/N=c2\ssc(C(=S)Nc3ccc(OC)cc3)c2S)cc1 | > 100 µM (inactive) | 39.6 µM (inactive) | > 100 µM (inactive) | 83.6 µM (inactive) | 31.6 µM (inactive) | > 100 µM (inactive) | 69 µM (inactive) | > 100 µM (inactive) | > 100 µM (inactive) | 97.5 µM (inactive) | > 100 µM (inactive) | > 100 µM (inactive) | 32.4 µM (inactive) | > 100 µM (inactive) | > 100 µM (inactive) | > 100 µM (inactive) | 64.9 | > 100 µM (inactive) | > 100 µM (inactive) | > 100 µM (inactive)
CC(=O)c1ccc(Br)cc1NC1=CC(=O)c2ncccc2C1=O | 0.322 µM (active) | 1.12 µM (active) | 12.2 µM (inactive) | 2.4 µM (inactive) | 3.47 µM (inactive) | 2 µM (inactive) | 1.38 µM (inactive) | 3.18 µM (inactive) | 1.83 µM (inactive) | 5.53 µM (inactive) | 3.47 µM (inactive) | 3.64 µM (inactive) | 3.22 µM (inactive) | 2.18 µM (inactive) | 3.84 µM (inactive) | 3.86 µM (inactive) | 2.69 | 13.1 µM (inactive) | 7 µM (inactive) | 2.56 µM (inactive)
CCCN(CCC)C(=S)Sc1nc(C)nc(N2CCN(c3nc(C)nc(SC(=S)N(CCC)CCC)c3[N+](=O)[O-])CC2)c1[N+](=O)[O-] | 3.16 µM (inactive) | 23.9 µM (inactive) | 15.8 µM (inactive) | 20.7 µM (inactive) | 0.628 µM (active) | 12.4 µM (inactive) | 0.248 µM (active) | 0.262 µM (active) | 14.2 µM (inactive) | 5.5 µM (inactive) | 29.4 µM (inactive) | 21.8 µM (inactive) | 16.5 µM (inactive) | 0.386 µM (active) | 22.6 µM (inactive) | 17.9 µM (inactive) | 9.4 | 23.4 µM (inactive) | 8.77 µM (inactive) | 26.8 µM (inactive)
O=C1N[C@@H]2c3c(Br)sc(Br)c3C(=O)[C@@H]2O1 | 6.59 µM (inactive) | 8.67 µM (inactive) | 5.14 µM (inactive) | 16.4 µM (inactive) | 1.57 µM (inactive) | 2.83 µM (inactive) | 3.98 µM (inactive) | 2.56 µM (inactive) | 10.7 µM (inactive) | 2.11 µM (inactive) | 22 µM (inactive) | 9.66 µM (inactive) | 3.69 µM (inactive) | 5.12 µM (inactive) | 15.8 µM (inactive) | 10.1 µM (inactive) | 1.91 | 13.7 µM (inactive) | 2.93 µM (inactive) | 10.3 µM (inactive)
O=C(Nc1ccn(C2CC(I)C(COC(c3ccccc3)(c3ccccc3)c3ccccc3)O2)c(=O)n1)c1ccccc1 (stereo not given) | 9.53 µM (inactive) | 7.11 µM (inactive) | 5.14 µM (inactive) | 7.83 µM (inactive) | 8.89 µM (inactive) | 6.89 µM (inactive) | 4.86 µM (inactive) | 7.59 µM (inactive) | 7.46 µM (inactive) | 9.25 µM (inactive) | 14 µM (inactive) | 8.55 µM (inactive) | 12.6 µM (inactive) | 7.26 µM (inactive) | 12.9 µM (inactive) | 4.53 µM (inactive) | 8.73 | > 21.5 µM (inactive) | 4.36 µM (inactive) | 12.4 µM (inactive)
CN(C)CC1CN/C(=N\C(=O)Nc2ccccc2)O1 (stereo not given) | > 100 µM (inactive) | > 100 µM (inactive) | > 100 µM (inactive) | > 100 µM (inactive) | > 100 µM (inactive) | > 100 µM (inactive) | > 100 µM (inactive) | > 100 µM (inactive) | > 100 µM (inactive) | > 100 µM (inactive) | > 100 µM (inactive) | > 100 µM (inactive) | > 100 µM (inactive) | > 100 µM (inactive) | > 100 µM (inactive) | > 100 µM (inactive) | > 100 | > 100 µM (inactive) | > 100 µM (inactive) | > 100 µM (inactive)
CCC(C)C(NC(=O)c1c2ccccc2nc2ccccc12)C(=O)O (stereo not given) | 60 µM (inactive) | > 100 µM (inactive) | > 100 µM (inactive) | 77.3 µM (inactive) | 31.7 µM (inactive) | 83 µM (inactive) | 98.9 µM (inactive) | > 100 µM (inactive) | > 100 µM (inactive) | > 100 µM (inactive) | > 100 µM (inactive) | > 100 µM (inactive) | > 100 µM (inactive) | > 100 µM (inactive) | > 100 µM (inactive) | 25.1 µM (inactive) | 41 | > 100 µM (inactive) | > 100 µM (inactive) | 60.7 µM (inactive)
COC(=O)[C@H](C)NC(=O)[C@H](CSC)N1C(=O)N[C@@H](C(C)C)C1=O | > 100 µM (inactive) | 71.3 µM (inactive) | > 100 µM (inactive) | > 100 µM (inactive) | 29.6 µM (inactive) | > 100 µM (inactive) | > 100 µM (inactive) | > 100 µM (inactive) | > 100 µM (inactive) | > 100 µM (inactive) | > 100 µM (inactive) | > 100 µM (inactive) | > 100 µM (inactive) | > 100 µM (inactive) | > 100 µM (inactive) | > 100 µM (inactive) | > 100 | > 100 µM (inactive) | > 100 µM (inactive) | > 100 µM (inactive)

Reference: ChEMBL document CHEMBL1201862, “PubChem BioAssay data set” (2004)
